Values belong to the molecule of their own block, whether it stands above or below them.
Assays:
[1] = molecular target: Bifunctional peptidase and (3S)-lysyl hydroxylase JMJD7 (Homo sapiens, UniProt P0C870); experiment: Inhibition of N-terminal His-tagged human JMJD7 (1 to 316 residues) expressed in Escherichia coli BL21 (DE3) luciferase based succinate-gloTM JmjC demethylase/hydroxylase assay
[2] = system: T47D; experiment: Cytotoxicity against human T47D cells assessed as growth inhibition measured after 72 hrs by MTT assay
[3] = system: SK-BR-3; experiment: Cytotoxicity against human SK-BR-3 cells assessed as growth inhibition measured after 72 hrs by MTT assay; conditions: SK-BR-3, 72 h
[4] = system: Jurkat; experiment: Cytotoxicity against human Jurkat cells assessed as growth inhibition measured after 72 hrs by MTT assay
[5] = system: HeLa; experiment: Cytotoxicity against human HeLa cells assessed as growth inhibition measured after 72 hrs by MTT assay
[6] = system: BJ; experiment: Cytotoxicity against human BJ cells assessed as growth inhibition measured after 72 hrs by MTT assay
[7] = system: SH-SY5Y; experiment: Cytotoxicity against human SH-SY5Y cells assessed as growth inhibition measured after 72 hrs by MTT assay

Chain of Bifunctional peptidase and (3S)-lysyl hydroxylase JMJD7 (P0C870 whole entry, the tested form may be a part): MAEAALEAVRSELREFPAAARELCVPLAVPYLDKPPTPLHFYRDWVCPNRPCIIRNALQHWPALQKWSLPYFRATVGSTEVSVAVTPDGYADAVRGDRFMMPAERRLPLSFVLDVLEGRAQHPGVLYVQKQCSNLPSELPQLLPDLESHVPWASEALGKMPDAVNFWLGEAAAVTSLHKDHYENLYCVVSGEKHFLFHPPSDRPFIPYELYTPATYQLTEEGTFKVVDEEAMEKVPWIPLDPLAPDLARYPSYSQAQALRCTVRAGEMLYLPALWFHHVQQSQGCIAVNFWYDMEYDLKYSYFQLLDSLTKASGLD

IC50 [1]: 33.2 µM
SMILES: COc1ccc(CCC(=O)Nc2ccccc2C(=O)O)cc1OC

IC50 [1]: 11 µM
SMILES: CCCNC(=O)c1ccc(-c2nc3ccccc3s2)s1

IC50 [1]: 31.6 µM
SMILES: Oc1c(C(Nc2ccccn2)c2ccccc2)ccc2cccnc12 (stereo not given)

SMILES: O=C(Oc1ccc([N+](=O)[O-])c2cccnc12)c1ccc(Cl)cc1Cl
IC50 [2]: 9.4 µM
IC50 [3]: 13.3 µM
IC50 [4]: 15 µM
IC50 [5]: 16.1 µM
IC50 [6]: > 100 µM
IC50 [7]: > 100 µM

IC50 [1]: 7.16 µM
SMILES: COc1cccc(-c2ccc(NC(=O)C3=C(C(=O)O)CCC3)c(F)c2)c1 [VIDOFLUDIMUS]

Source: ChEMBL document CHEMBL4819143, “Discovery of JMJD7 inhibitors with the aid of virtual screening and bioactivity evaluation” (Bioorg Med Chem Lett, 2021)
